The NIST ThermoML archive (doi:10.1016/j.jct.2018.05.027)
± gives the expanded uncertainty stated by the source.

Test: xn = mol fraction of the nth substance listed
Settings: Liquid, Vibrating wire viscometry

CCC(C)O (stereo not drawn) [butan-2-ol] + CC(C)CC(C)(C)C
viscosity [mPa·s]
Settings | 293.15 K | 298.15 K | 313.15 K | 333.15 K | 353.15 K
100 kPa, x1 = 0.2999 | 0.6047 ± 0.011 | – | 0.4647 ± 0.0088 | 0.3574 ± 0.0073 | 0.2785 ± 0.0062
100 kPa, x1 = 0.5001 | 0.7922 ± 0.014 | – | 0.5643 ± 0.01 | 0.4132 ± 0.008 | 0.3272 ± 0.0068
100 kPa, x1 = 0.7996 | 1.673 ± 0.027 | – | 0.9784 ± 0.017 | 0.6203 ± 0.011 | 0.4165 ± 0.0081
100 kPa, x1 = 1 | 3.767 ± 0.06 | 3.102 ± 0.049 | 1.839 ± 0.03 | 1.007 ± 0.017 | 0.6198 ± 0.011
1000 kPa, x1 = 0.2999 | 0.609 ± 0.011 | – | 0.4677 ± 0.0088 | 0.3614 ± 0.0073 | 0.2825 ± 0.0062
1000 kPa, x1 = 0.5001 | 0.797 ± 0.014 | – | 0.5722 ± 0.01 | 0.4166 ± 0.0081 | 0.333 ± 0.0069
1000 kPa, x1 = 0.7996 | 1.707 ± 0.028 | – | 0.9858 ± 0.017 | 0.631 ± 0.011 | 0.4213 ± 0.0081
1000 kPa, x1 = 1 | 3.813 ± 0.06 | 3.123 ± 0.05 | 1.862 ± 0.03 | 1.023 ± 0.017 | 0.6273 ± 0.011
5000 kPa, x1 = 0.2999 | 0.6391 ± 0.011 | – | 0.4936 ± 0.0092 | 0.3814 ± 0.0076 | 0.2981 ± 0.0065
5000 kPa, x1 = 0.5001 | 0.8463 ± 0.014 | – | 0.6074 ± 0.011 | 0.4455 ± 0.0085 | 0.349 ± 0.0071
5000 kPa, x1 = 0.7996 | 1.793 ± 0.029 | – | 1.043 ± 0.017 | 0.6669 ± 0.012 | 0.4405 ± 0.0084
5000 kPa, x1 = 1 | 3.978 ± 0.063 | 3.28 ± 0.052 | 1.947 ± 0.031 | 1.078 ± 0.018 | 0.6577 ± 0.012
10000 kPa, x1 = 0.2999 | 0.6863 ± 0.012 | – | 0.5264 ± 0.0097 | 0.4083 ± 0.008 | 0.3222 ± 0.0068
10000 kPa, x1 = 0.5001 | 0.8968 ± 0.015 | – | 0.6501 ± 0.011 | 0.4682 ± 0.0088 | 0.373 ± 0.0075
10000 kPa, x1 = 0.7996 | 1.913 ± 0.031 | – | 1.11 ± 0.018 | 0.7064 ± 0.012 | 0.4671 ± 0.0088
10000 kPa, x1 = 1 | 4.235 ± 0.067 | 3.462 ± 0.055 | 2.041 ± 0.033 | 1.133 ± 0.019 | 0.6999 ± 0.012
20000 kPa, x1 = 0.2999 | 0.7692 ± 0.013 | – | 0.5924 ± 0.011 | 0.4584 ± 0.0087 | 0.3642 ± 0.0073
20000 kPa, x1 = 0.5001 | 1 ± 0.017 | – | 0.7349 ± 0.013 | 0.5293 ± 0.0097 | 0.4151 ± 0.0081
20000 kPa, x1 = 0.7996 | 2.14 ± 0.034 | – | 1.253 ± 0.021 | 0.7854 ± 0.013 | 0.5216 ± 0.0096
20000 kPa, x1 = 1 | 4.696 ± 0.074 | 3.873 ± 0.061 | 2.262 ± 0.036 | 1.254 ± 0.021 | 0.7717 ± 0.013
30000 kPa, x1 = 0.2999 | 0.8642 ± 0.015 | – | 0.6612 ± 0.012 | 0.5124 ± 0.0095 | 0.4069 ± 0.0079
30000 kPa, x1 = 0.5001 | 1.131 ± 0.019 | – | 0.8188 ± 0.014 | 0.6041 ± 0.011 | 0.4619 ± 0.0087
30000 kPa, x1 = 0.7996 | 2.395 ± 0.038 | – | 1.4 ± 0.023 | 0.8701 ± 0.015 | 0.5729 ± 0.01
30000 kPa, x1 = 1 | 5.159 ± 0.082 | 4.253 ± 0.067 | 2.503 ± 0.04 | 1.372 ± 0.023 | 0.8354 ± 0.014
40000 kPa, x1 = 0.2999 | 0.9608 ± 0.016 | – | 0.7328 ± 0.013 | 0.5669 ± 0.01 | 0.4472 ± 0.0085
40000 kPa, x1 = 0.5001 | 1.247 ± 0.021 | – | 0.9032 ± 0.015 | 0.6689 ± 0.012 | 0.5088 ± 0.0094
40000 kPa, x1 = 0.7996 | 2.683 ± 0.043 | – | 1.559 ± 0.025 | 0.9706 ± 0.016 | 0.6309 ± 0.011
40000 kPa, x1 = 1 | 5.693 ± 0.09 | 4.697 ± 0.074 | 2.734 ± 0.044 | 1.491 ± 0.024 | 0.9088 ± 0.015
50000 kPa, x1 = 0.2999 | 1.065 ± 0.018 | – | 0.8134 ± 0.014 | 0.6217 ± 0.011 | 0.4904 ± 0.0091
50000 kPa, x1 = 0.5001 | 1.385 ± 0.023 | – | 0.987 ± 0.017 | 0.7304 ± 0.013 | 0.5576 ± 0.01
50000 kPa, x1 = 0.7996 | 2.993 ± 0.048 | – | 1.707 ± 0.028 | 1.07 ± 0.018 | 0.6907 ± 0.012
50000 kPa, x1 = 1 | 6.274 ± 0.099 | 5.142 ± 0.081 | 2.99 ± 0.048 | 1.624 ± 0.026 | 0.9898 ± 0.017
60000 kPa, x1 = 0.2999 | 1.173 ± 0.019 | – | 0.8859 ± 0.015 | 0.6795 ± 0.012 | 0.54 ± 0.0099
60000 kPa, x1 = 0.5001 | 1.541 ± 0.025 | – | 1.082 ± 0.018 | 0.7967 ± 0.014 | 0.6147 ± 0.011
60000 kPa, x1 = 0.7996 | 3.276 ± 0.052 | – | 1.869 ± 0.03 | 1.172 ± 0.019 | 0.7546 ± 0.013
60000 kPa, x1 = 1 | 6.831 ± 0.11 | 5.553 ± 0.088 | 3.237 ± 0.051 | 1.759 ± 0.029 | 1.07 ± 0.018
70000 kPa, x1 = 0.2999 | 1.282 ± 0.021 | – | 0.9597 ± 0.016 | 0.7435 ± 0.013 | 0.5886 ± 0.011
70000 kPa, x1 = 0.5001 | 1.7 ± 0.028 | – | 1.179 ± 0.019 | 0.8604 ± 0.015 | 0.6678 ± 0.012
70000 kPa, x1 = 0.7996 | 3.645 ± 0.058 | – | 2.049 ± 0.033 | 1.271 ± 0.021 | 0.8214 ± 0.014
70000 kPa, x1 = 1 | 7.377 ± 0.12 | 6.044 ± 0.095 | 3.558 ± 0.056 | 1.905 ± 0.031 | 1.151 ± 0.019
80000 kPa, x1 = 0.2999 | 1.395 ± 0.023 | – | 1.04 ± 0.017 | 0.8018 ± 0.014 | 0.6326 ± 0.011
80000 kPa, x1 = 0.5001 | 1.853 ± 0.03 | – | 1.272 ± 0.021 | 0.9339 ± 0.016 | 0.7221 ± 0.013
80000 kPa, x1 = 0.7996 | 3.939 ± 0.062 | – | 2.23 ± 0.036 | 1.387 ± 0.023 | 0.8973 ± 0.015
80000 kPa, x1 = 1 | 8.056 ± 0.13 | 6.544 ± 0.1 | 3.841 ± 0.061 | 2.081 ± 0.034 | 1.242 ± 0.021
100000 kPa, x1 = 0.2999 | 1.66 ± 0.027 | – | 1.223 ± 0.02 | 0.9315 ± 0.016 | 0.7318 ± 0.013
100000 kPa, x1 = 0.5001 | 2.169 ± 0.035 | – | 1.509 ± 0.025 | 1.089 ± 0.018 | 0.8402 ± 0.014
100000 kPa, x1 = 0.7996 | 4.702 ± 0.074 | – | 2.621 ± 0.042 | 1.613 ± 0.026 | 1.046 ± 0.017
100000 kPa, x1 = 1 | 9.598 ± 0.15 | 7.646 ± 0.12 | 4.456 ± 0.071 | 2.427 ± 0.039 | 1.444 ± 0.024
120000 kPa, x1 = 0.2999 | 1.925 ± 0.031 | – | 1.414 ± 0.023 | 1.057 ± 0.018 | 0.8276 ± 0.014
120000 kPa, x1 = 0.5001 | 2.516 ± 0.04 | – | 1.74 ± 0.028 | 1.236 ± 0.02 | 0.9461 ± 0.016
120000 kPa, x1 = 0.7996 | 5.445 ± 0.086 | – | 3.051 ± 0.049 | 1.831 ± 0.03 | 1.206 ± 0.02
120000 kPa, x1 = 1 | 11.31 ± 0.18 | 9.053 ± 0.14 | 5.179 ± 0.082 | 2.716 ± 0.043 | 1.644 ± 0.027
140000 kPa, x1 = 0.2999 | 2.24 ± 0.036 | – | 1.598 ± 0.026 | 1.196 ± 0.02 | 0.9377 ± 0.016
140000 kPa, x1 = 0.5001 | 2.913 ± 0.047 | – | 1.973 ± 0.032 | 1.408 ± 0.023 | 1.069 ± 0.018
140000 kPa, x1 = 0.7996 | 6.323 ± 0.1 | – | 3.552 ± 0.056 | 2.083 ± 0.034 | 1.367 ± 0.022
140000 kPa, x1 = 1 | 13.38 ± 0.21 | 10.43 ± 0.16 | 5.933 ± 0.094 | 3.099 ± 0.049 | 1.845 ± 0.03
